Experimental findings from patent US10011568B2, “Cyclohexyl pyridine derivative” (priority 2014, dated 2018) are described below.

Series [1] in a line: Measurement of drug concentrations in the brain after foot-tapping. It counts as in vivo. The settings on record: male gerbil, 0.1 mg/kg iv, after foot-tapping was finished. As for the experimental part:
(§1) A male gerbil (Japan SLC) was anesthetized with isoflurane, and 0.1 mg/kg of a test compound was administered from the jugular vein. After four hours. GR73632 (5 pmol/5 μl saline), which is an NK1 receptor agonist, was administered into the cerebral ventricle at the part 1 mm lateral to and 4.5 mm below the bregma in the head, under anesthesia with isoflurane. After the administration, the gerbil was moved to an observation cage, and the foot-tapping period during 30 minutes after the recovery of the righting reflex was measured. The foot-tapping inhibition rate (%) of each test compound was calculated by the following equation. Foot-tapping inhibition rate (%)−{1−(Fool-tapping period when test compound was administered)/(Foot-tapping period when solvent was administered)}×100 (2) Measurement of Drug Concentrations
After foot-tapping was finished, laparotomy was performed immediately under anesthesia with ether, and a blood sample was taken from the abdominal vena cava. At the same lime, the brain was extracted. Through a quantitative analysis using liquid chromatography-mass spectrometry (LC/MS), the concentrations of the test compound in the plasma and the brain were measured.
(§2) In the table, Ex. No. means the Example number. Inhibition (%) is the loot-tapping inhibition rate, and Cone. (nM) is the drug concentration in the brain.

The target of series [2] is human CYP3A4 (Homo sapiens (Human), UniProt P08684). Kind of series: Inhibitory effect on CYP3A4. It counts as in vitro ADME. Particulars: 30-minute pre-incubation, Luciferin-IPA substrate; read-out: IC50 (μM), CYP3A4 inhibition. Here is the method: Inhibitory Effect on CYP3A4
Chain of human CYP3A4 (P08684 whole entry): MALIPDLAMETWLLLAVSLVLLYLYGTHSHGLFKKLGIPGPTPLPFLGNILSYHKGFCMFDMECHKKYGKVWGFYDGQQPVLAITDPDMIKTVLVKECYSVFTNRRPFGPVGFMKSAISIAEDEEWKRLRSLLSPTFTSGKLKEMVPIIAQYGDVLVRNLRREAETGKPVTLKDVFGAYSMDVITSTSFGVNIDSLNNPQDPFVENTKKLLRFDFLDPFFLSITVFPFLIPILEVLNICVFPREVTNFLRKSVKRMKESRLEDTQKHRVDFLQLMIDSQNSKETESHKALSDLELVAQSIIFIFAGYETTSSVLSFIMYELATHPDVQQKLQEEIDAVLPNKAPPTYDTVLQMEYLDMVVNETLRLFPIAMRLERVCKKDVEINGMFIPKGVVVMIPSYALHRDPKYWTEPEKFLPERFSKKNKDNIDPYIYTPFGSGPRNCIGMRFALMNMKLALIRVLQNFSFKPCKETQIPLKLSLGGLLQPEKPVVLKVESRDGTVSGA
Enzyme reaction was performed by incubating in a potassium phosphate buffer solution (pH 7.4) containing 1 nM to 20 μM test compound, 3.2 mM magnesium chloride, 0.2 pmol human CYP3A4 (BD Biosciences), 0.5 mM reduced nicotinamide adenine dinucleotide phosphate (NADPH) and 3 μM Luciferin-IPA (Promega) at 37° C. for 10 minutes. The volume of the reaction solution was 50 μL/well. The 30-minute pre-incubation group was incubated at 37° C. for 30 minutes before adding tire substrate, the Luciferin-IPA solution (12.5 μL/well). At the end of the enzyme reaction, 50 μL/well of a Luciferin detection reagent (Promega) was added to the wells, and the plate was left at room temperature for 20 minutes. Then, the emission intensities were measured with Infinite M1000 (TECAN). The enzyme activities (%) relative to the value of the group to which the test compound was not added were calculated.

Series [3] deals with T1, human NK1 receptor (Homo sapiens (Human), UniProt P25103). Kind of series: Inhibitory effect on human NK1 receptor (substance P-induced increase in intracellular calcium concentration). The settings on record: substance P 1 μM, compound 0.1 μM; read-out: SPRR (%), Substance P-Response Remaining (intracellular calcium concentration). It counts as cell-based. As for the experimental part:
Inhibitory Effect on Human NK1 Receptor
(1) Preparation of Human NK1 Receptor-Expressing Cells
Human NK1 receptor-expressing cells were prepared by the same methods as those described in 2-3 of Test Example 1.
(2) Study on Inhibitory Effect on Increase in Intracellular Calcium Concentration
The human NK1 receptor-expressing cells were washed with 300 μL/well of a washing solution (20 mM HEPES/Hank's Balanced Salt Solution (HBSS) pH 7.3). A fluorescent calcium indicator (Fluo-4 Direct Calcium Assay Kit, Life Technologies, containing 0.42 mM probenecid and 0.1% bovine serum albumin, prepared according to the protocol of the product) was added to the wells at 150 μL/well, and the plate was incubated at 37° C. for 30 minutes in an incubator. Then. DMSO solutions of a test compound, which were prepared at an 80-time higher concentration using 100% dimethyl sulfoxide (DMSO), were added to the wells at 2.5 μL/well (final concentrations of 0.1, 1 and 10 μM), and the solutions were mixed. Then, the plate was further incubated at […] for 30 minutes in an incubator. After 30 minutes, the intracellular calcium concentrations were measured immediately.
The intracellular calcium concentrations were each measured as a fluorescent signal using FDSS (registered trademark) 7000 (Hamamatsu Photonics). A substance P (Peptide Institute. Inc.) solution which was prepared at 0.4 μM or 4 μM using an assay buffer (20 mM HEPES/Hank's Balanced Salt Solution (HBSS) pH 7.3, containing 0.1% bovine serum albumin) was added automatically to each well at 50 μL/well (final concentration of 0.1 or 1 μM) 10 seconds after starting reading, and the fluorescent signal was measured up to 120 seconds.
The intracellular calcium concentration (%) of the cells to which a test compound was added was calculated by the equation below, where the fluorescent signal of the group to which the vehicle (DMSO) was added was regarded as 100%, and the fluorescent signal before the addition of substance P was regarded as 0%. Intracellular calcium concentration (%)—(Fluorescent signal of test compound addition group)/(Fluorescent signal of vehicle addition group)×100
The intracellular calcium concentration (%) calculated was regarded as the remaining agonist activity of substance P (Substance P-Response Remaining: SPRR). In the table, Ex. No. means the Example number. SPRR (%) is the value obtained when the concentration of substance P was 1 μM and the concentration of the compound was 0.1 μM.

Series [4] has as its target T1, human NK1 receptor. Kind of series: Affinity for human NK1 receptor (125I-substance P receptor binding test, membrane fraction). Particulars: membrane fraction of human NK1 receptor-expressing 293T cells; read-out: IC50 (nM), concentration required for 50% inhibition of 125I-substance P binding. As for the experimental part:
Affinity for Human NK1 Receptor
(3) Measurement of Binding Affinity to Human NK1 Receptor
(3-1) Preparation of Membrane Fraction from Human NK1 Receptor-Expressing Cells
Human NK1 receptor-expressing cells were prepared in a 175 cm^2 culture flask (Nippon Becton Dickinson). The formation of a complex of the human NK1 receptor expression plasmid and Lipofectamine 2000 was performed by calculating the culture area ratio and increasing the scale of the method described in the above 2-4 by the ratio. The human NK1 receptor-expressing cells were collected in a buffer solution for the membrane fraction preparation (50 mM Tris (Wako Pure Chemical), 120 mM sodium chloride (Wako Pure Chemical Industries), 5 mM potassium chloride (Wako Pure Chemical Industries), 1 mM ethylenediaminetetraacetic acid (Sigma), 0.002 mg/mL chymostatin (Peptide Institute), 0.04 mg/bacitracin (Wako Pure Chemical Industries), 0.005 mg/mL phosphoramidon (Peptide Institute) and 0.5 mM phenylmethylsulfonyl fluoride (Wako Pure Chemical Industries), pH7.4) and centrifuged at 1,880 g for 10 minutes, and the cell sediment was suspended in the buffer solution for the membrane fraction preparation. After freezing and thawing the cells once, the cells were homogenized using a Dounce-type homogenizer (cooled on ice, 1000 rpm, 20 times) The homogenized cell suspension was centrifuged at 20,000 rpm for 10 minutes, and the supernatant was removed to obtain cell sediment. The cell sediment was suspended again in the buffer solution for the membrane fraction preparation and homogenized using a Dounce-type homogenizer (cooled on ice, 1000 rpm, 30 times). The cell suspension was centrifuged at 20,000 rpm for 10 minutes, and the supernatant was removed to obtain cell sediment. The same homogenization and centrifugation were repeated again, and final cell sediment was obtained. The final cell sediment was suspended in a buffer solution for the receptor binding test (50 mM Tris (Wako Pure Chemical Industries). 3 mM manganese chloride (Wako Pure Chemical Industries), 0.002 mg/mL chymostatin (Peptide Institute), 0.04 mg/bacitracin (Wako Pure Chemical Industries) and 0.02% bovine serum albumin (Sigma), pH 7.4), and the protein concentration was measured using BCA Protein Assay Kit (Pierce).
(3-2) Receptor Binding Test
The buffer solution for the receptor binding test was dispensed to the wells of a 96-well assay plate (Greiner) at 22.5 μL/well. DMSO solutions of a test compound, which were prepared at an 80-time higher concentration using 100% dimethyl sulfoxide (DMSO), were added to the wells at 2.5 μL/well (final concentrations of 1 nM to 100 nM), and the solutions were mixed. As a radiolabeled ligand, ^125I-substance P (Substance P, [^125I]Tyr^8-, Perkin Elmer) was used. ^125I-substance P was diluted with the buffer solution for the receptor binding test to a concentration resulting in 125 pmol/25 μL/well and added to the 96-well assay plate, and the solutions were mixed. The membrane fraction prepared from the human NK1 receptor-expressing cells was diluted with the buffer solution for the receptor binding test to a concentration resulting in 8 to 10 μg/well, suspended until the suspension became in such a homogenous state that the suspension could flow through a 27G injection needle smoothly and then added to the 96-well assay plate at 150 μL/well. Then, the plate was incubated at room temperature for 60 minutes while shaking the plate. The reaction solutions were suction-filtered through a multiscreen 96-well filter plate (Millipore) which had been pre-treated with 0.3% polyethyleneimine, and the reaction was terminated by washing with a washing solution (50 mM Tris and 0.02% bovine serum albumin, pH 7.4) four times. The bottom of the microplate was dried at 60° C., and then 100 μL/well of MicroScint 20 (PerkinElmer) was dispensed to the wells. The top of the plate was sealed with TopSeal A (PerkinElmer), and the plate was shaken for 5 to 10 minutes. […]

In series [5] the target is NK1 receptor (Meriones unguiculatus (Mongolian jird) (Gerbillus unguiculatus), UniProt Q5DUB1). Kind of series: Effect on foot-tapping induced by NK1 receptor agonist GR73632. Particulars: male gerbil, 0.1 mg/kg iv, GR73632 after four hours. It counts as in vivo. Here is the method:
(1) Effect on Foot-Tapping
The test compound solution was prepared by dissolving the test compound in a vehicle (a mixture of 50% N,N-dimethylacetamide (Wako Pure Chemical Industries), 30% propylene glycol (Wako Pure Chemical Industries). 4% 2-hydroxypropyl-β-cyclodextrin (Wako Pure Chemical Industries) and 16% distilled water).
as §1, §2

The structures appear in SMILES notation.

T1 sequence (P25103 whole entry): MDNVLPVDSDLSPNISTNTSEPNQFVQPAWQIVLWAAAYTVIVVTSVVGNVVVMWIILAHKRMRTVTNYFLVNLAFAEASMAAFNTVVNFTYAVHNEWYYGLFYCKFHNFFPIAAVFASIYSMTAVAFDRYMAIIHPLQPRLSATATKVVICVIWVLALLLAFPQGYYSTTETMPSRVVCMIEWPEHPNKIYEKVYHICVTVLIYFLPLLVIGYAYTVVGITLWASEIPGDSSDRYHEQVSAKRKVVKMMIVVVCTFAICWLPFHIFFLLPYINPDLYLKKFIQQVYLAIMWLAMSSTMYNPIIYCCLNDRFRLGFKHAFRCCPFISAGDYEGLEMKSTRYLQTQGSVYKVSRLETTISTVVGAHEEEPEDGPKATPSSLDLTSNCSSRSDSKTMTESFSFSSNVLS
Chain of NK1 receptor (Q5DUB1 whole entry): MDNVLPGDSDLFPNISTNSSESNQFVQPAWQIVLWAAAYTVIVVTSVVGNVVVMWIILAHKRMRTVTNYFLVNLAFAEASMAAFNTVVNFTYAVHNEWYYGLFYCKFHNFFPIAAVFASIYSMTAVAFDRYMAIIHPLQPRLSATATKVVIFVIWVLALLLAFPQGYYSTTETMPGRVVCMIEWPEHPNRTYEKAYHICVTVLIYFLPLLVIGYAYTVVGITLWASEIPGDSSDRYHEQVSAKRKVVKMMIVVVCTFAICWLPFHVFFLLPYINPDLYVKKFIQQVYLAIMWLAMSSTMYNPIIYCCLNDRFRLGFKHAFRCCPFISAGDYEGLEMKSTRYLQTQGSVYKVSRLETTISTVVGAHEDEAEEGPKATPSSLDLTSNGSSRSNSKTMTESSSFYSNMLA

In the case of `Cc1cc(F)ccc1-c1cc(C2CCC(CCC(=O)O)CC2)ncc1N(C)C(=O)C(C)(C)c1cc(C(F)(F)F)cc(C(F)(F)F)c1` (stereo not drawn) [Example 2, 3-{4-[5-{[2-(3,5-Bistrifluoromethylphenyl)-2-methylpropionyl]methylamino}-4-(4-fluoro-2-methylphenyl)pyridin-2-yl]cyclohexyl}propionic Acid], the “Conc. (nM), drug concentration in the brain” value (“Conc. (nM), drug concentration” for short) in series [1] is listed as 19 nM. Further, in series [2], the IC50 came out at 6.8 µM. Further, the remaining activity at 0.1 µM in series [3] worked out at 7.5%.
On to `Cc1cc(F)ccc1-c1cc(C2CCC(CC(=O)O)CC2)ncc1N(C)C(=O)C(C)(CO)c1cc(C(F)(F)F)cc(C(F)(F)F)c1` (stereo not drawn) [Example 5, {4-[5-{[2-(3,5-Bistrifluoromethylphenyl)-3-hydroxy-2-methylpropionyl]methylamino}-4-(4-fluoro-2-methylphenyl)pyridin-2-yl]cyclohexyl}acetic Acid], for which the IC50 in series [2] turned out to be 13 µM; in series [4] it was 0.98 nM. In addition, the remaining activity at 0.1 µM in series [3] turned out to be 26%.
Consider `Cc1cc(F)ccc1-c1cc(C2CCC(O)(CC(=O)O)CC2)ncc1N(C)C(=O)C(C)(C)c1cc(C(F)(F)F)cc(C(F)(F)F)c1` (stereo not drawn) [Example 6, {4-[5-{[2-(3,5-Bistrifluoromethylphenyl)-2-methylpropionyl]methylamino}-4-(4-fluoro-2-methylphenyl)pyridin-2-yl]-1-hydroxycyclohexyl}acetic Acid], for which the IC50 was found to be 6.1 µM in series [2] and 1 nM in series [4]. For the same compound, the remaining activity at 0.1 µM in series [3] came out at 21%.
Take `Cc1cc(F)ccc1-c1cc([C@H]2CC[C@@H](C(C)(C)C(=O)O)CC2)ncc1N(C)C(=O)C(C)(C)c1cc(C(F)(F)F)cc(C(F)(F)F)c1` [Example 12, cis-2-{4-[5-{[2-(3,5-Bistrifluoromethylphenyl)-2-methylpropionyl]methylamino}-4-(4-fluoro-2-methylphenyl)pyridin-2-yl]cyclohexyl}-2-methylpropionic Acid]: the results for the IC50 in series [2] and in series [4] were 2.2 µM and 4.46 nM, respectively. Moreover, in series [3], the remaining activity at 0.1 µM came out at 53%.
For the compound `Cc1cc(F)ccc1-c1cc(C2CCC(C)(CC(=O)O)CC2)ncc1N(C)C(=O)C(C)(C)c1cc(C(F)(F)F)cc(C(F)(F)F)c1` (stereo not drawn) [Example 15, {4-[5-{[2-(3,5-Bistrifluoromethylphenyl)-2-methylpropionyl]methylamino}-4-(4-fluoro-2-methylphenyl)pyridin-2-yl]-1-methylcycloheyl}acetic Acid], the “Conc. (nM), drug concentration” value in series [1] worked out at 39 nM. Moreover, the “Inhibition (%), foot-tapping inhibition rate” value in series [5] was 100%. Besides, the remaining activity at 0.1 µM in series [3] was 3.7%.
For the compound `Cc1cc(F)ccc1-c1cc(C2CCC(CC(=O)O)CC2)nc(Cl)c1N(C)C(=O)C(C)(C)c1cc(C(F)(F)F)cc(C(F)(F)F)c1` (stereo not drawn) [Example 17, {4-[5-{[2-(3,5-Bistrifluoromethylphenyl)-2-methylpropionyl]methylamino}-6-chloro-4-(4-fluoro-2-methylphenyl)pyridin-2-yl]cyclohexyl}acetic Acid], the “Conc. (nM), drug concentration” value in series [1] is given as 57 nM. Besides, the IC50 in series [2] came out at 3.3 µM.
Regarding `Cc1cc(F)ccc1-c1cc(C2CCC(CC(=O)O)CC2)nc(CO)c1N(C)C(=O)C(C)(C)c1cc(C(F)(F)F)cc(C(F)(F)F)c1` (stereo not drawn) [Example 19, {4-[5-{[2-(3,5-Bistrifluoromethylphenyl)-2-methylpropionyl]methylamino}-4-(4-fluoro-2-methylphenyl)-6-hydroxymethylpyridin-2-yl]cyclohexyl}acetic Acid], in series [1], the “Conc. (nM), drug concentration” value came to 24 nM. For the same compound, in series [5], the “Inhibition (%), foot-tapping inhibition rate” value is listed as 95%. Also, in series [3], the remaining activity at 0.1 µM came out at 26%. Also, the IC50 in series [4] came to 4.96 nM.
